{"source": "patent EP4332093A1", "about": "“SALT CONTAINING PIPERAZINE POLYCYCLIC DERIVATIVE, CRYSTAL FORM THEREOF, PREPARATION METHOD THEREFOR, AND USE THEREOF” (Shanghai Hansoh Biomedical Co., Ltd., priority 2021, dated 2022)", "type_in_all_cases": "physicochemical", "key": {"[1]": {"assay": "Crystal form stability study of hydrochloride for 30 days", "conditions": "30 days; light 5000lux, 60°C, 92.5% RH, 40°C & 75% RH", "description": "The diluent 80% methanol solution was added to prepare a solution containing about 0.5 mg/mL hydrochloride. The mixture was sonicated for 30min to produce a clear solution. 1mL of the soluion was filtered and measured by HPLC. See \"2.3.4\" for the HPLC analysis method. The content of related substances was calculated according to the peak area normalization method, and the results are shown in Table 32 below. Table 32 HPLC data of hydrochloride in stability experimental conditions for 30 days"}, "[2]": {"assay": "Thermodynamic stability experiment of crystal form (pulping in solvents, XRPD)", "conditions": "for Results after pulping (crystal form by XRPD): pulped for 1 week at room temperature and 50°C", "description": "An organic solvent with a certain solubility was selected. […] The supernatant was discarded, and the solid was dried in vacuum (-0.1 Mpa) overnight at 50°C. The XRPD of the solid was determined and compared with XRPD of raw compound salt."}, "[3]": {"assay": "Hygroscopicity experiment of crystal form A of hydrochloride"}, "[4]": {"assay": "Pressure crystal transformation test", "conditions": "tablet press at maximum pressure", "from_the_text": "The tablet press was adjusted to the maximum pressure. It was pressed into a tablet and then was subjected to PXRD characterization."}, "[5]": {"assay": "Grinding crystal transformation test", "conditions": "ground in a mortar for 5 min"}, "[6]": {"assay": "Salt form quantification (HPLC-ELSD)", "conditions": "Conclusion from Cl- content compared with theoretical values", "description": "The number of acids binding in the salt form was quantified by HPLC-ELSD test. An appropriate amount of NaCl was weighed, and a series of linear solutions of different concentrations with the diluent acetonitrile-water (50:50) was prepared. […] The above linear solution and hydrochloride samples solution was taken to filter. [table]"}, "[7]": {"assay": "Solid stability experiment of crystal forms of salt (5 and 10 days)", "conditions": "all conditions: light 5000lx, 60°C, 92.5% RH, 50°C 75% RH; 5 and 10 days", "description": "About 1 mg of different crystal forms of salt were taken and placed under the conditions of light 5000lx, high temperature 60°C, high humidity 92.5%RH, high temperature and high humidity 50°C 75%RH for 5 days and 10 days. The salt content was determined by HPLC and external standard method, and the change of relevant substances was calculated by chromatographic peak area normalization method."}}, "note": "Where a name gives a salt, the structure may show the parent alone."}
{"compound": "O=C(N[C@H]1C[C@H](CCN2CCN(c3cccc(Cl)c3Cl)CC2)C1)c1ncco1", "note": "[crystal form A of hydrochloride]", "values": [{"measurement": "crystal form change (PXRD)", "setting": "[1]", "result": "does not undergo crystal form change"}, {"measurement": "impurities (HPLC)", "setting": "[1]", "result": "do not increase significantly"}, {"measurement": "Results after pulping (crystal form by XRPD)", "setting": "[2]; 1,4-Dioxane", "result": "Crystal form A"}, {"measurement": "crystal form after being pulped by different solvents (XRPD)", "setting": "[2]; 1 week at room temperature and 50°C", "result": "the crystal form does not change"}, {"measurement": "Results after pulping (crystal form by XRPD)", "setting": "[2]; 2-Butanone", "result": "Crystal form A"}, {"measurement": "Results after pulping (crystal form by XRPD)", "setting": "[2]; 2-Methyl-tetrahydrofuran", "result": "Crystal form A"}, {"measurement": "Results after pulping (crystal form by XRPD)", "setting": "[2]; Acetone", "result": "Crystal form A"}, {"measurement": "Results after pulping (crystal form by XRPD)", "setting": "[2]; Acetonitrile", "result": "Crystal form A"}, {"measurement": "Results after pulping (crystal form by XRPD)", "setting": "[2]; Dichloromethane", "result": "Crystal form A"}, {"measurement": "Results after pulping (crystal form by XRPD)", "setting": "[2]; Ethanol", "result": "Crystal form A"}, {"measurement": "Results after pulping (crystal form by XRPD)", "setting": "[2]; Ethyl acetate", "result": "Crystal form A"}, {"measurement": "Results after pulping (crystal form by XRPD)", "setting": "[2]; Ethyl formate", "result": "Crystal form A"}, {"measurement": "Results after pulping (crystal form by XRPD)", "setting": "[2]; Isopropanol", "result": "Crystal form A"}, {"measurement": "Results after pulping (crystal form by XRPD)", "setting": "[2]; Methanol", "result": "Crystal form A"}, {"measurement": "Results after pulping (crystal form by XRPD)", "setting": "[2]; Methyl tert-butyl ether", "result": "Crystal form A"}, {"measurement": "Results after pulping (crystal form by XRPD)", "setting": "[2]; Tetrahydrofuran", "result": "Crystal form A"}, {"measurement": "Results after pulping (crystal form by XRPD)", "setting": "[2]; Toluene", "result": "Crystal form A"}, {"measurement": "Results after pulping (crystal form by XRPD)", "setting": "[2]; n-Heptane", "result": "Crystal form A"}, {"measurement": "hygroscopicity", "setting": "[3]", "result": "slightly hygroscopic"}, {"measurement": "XRPD pattern after humidification and dehumidification", "setting": "[3]; 2 cycles, 0 to 95% relative humidity", "result": "does not change"}, {"measurement": "hygroscopic weight gain", "setting": "[3]; RH 80%", "result": 0.509, "unit": "%"}, {"measurement": "crystal transformation before and after pressure (PXRD)", "setting": "[4]", "result": "didn't undergo crystal transformation"}, {"measurement": "crystal transformation before and after grinding (PXRD)", "setting": "[5]", "result": "didn't undergo crystal transformation"}, {"measurement": "The number of hydrochloric acid binding", "setting": "[6]", "result": "The number of hydrochloric acid binding in crystal form A of hydrochloride is 1"}, {"measurement": "crystal form stability (impurities)", "setting": "[7]", "result": "stable under all conditions"}]}
